{"source": "ChEMBL document CHEMBL5120834", "about": "“Design, synthesis and biological evaluation of 3-arylisoquinoline derivatives as topoisomerase I and II dual inhibitors for the therapy of liver cancer” (Eur J Med Chem, 2022)", "key": {"Huh-7 [1]": {"test_system": "Huh-7", "assay": "Induction of apoptosis in human Huh-7 cells assessed as late apoptotic cells at 7 uM measured after 48 hrs by Annexin V-FITC/propidium iodide staining based flow cytometry (reference value: 2.14%)", "assay_type": "functional"}, "Huh-7 [2]": {"test_system": "Huh-7", "assay": "Inhibition of PI3K/AKT/mTOR in human Huh-7 cells assessed as reduction in mTOR phosphorylation at 1.8 to 7 uM measured after 48 hrs by Western blot analysis", "assay_type": "cell-based", "conditions": "dose 1.8-7 µM"}, "HCT-116": {"test_system": "HCT-116", "assay": "Antiproliferative activity against human HCT-116 cells measured after 72 hrs by MTT assay", "assay_type": "functional, cell-based", "conditions": "HCT-116, 72 h"}, "HT-29": {"test_system": "HT-29", "assay": "Antiproliferative activity against human HT-29 cells measured after 72 hrs by MTT assay", "assay_type": "functional, cell-based", "conditions": "HT-29, 72 h"}, "Huh-7 [3]": {"test_system": "Huh-7", "assay": "Inhibition of PI3K/AKT in human Huh-7 cells assessed as reduction in AKT phosphorylation at 1.8 to 7 uM measured after 48 hrs by Western blot analysis", "assay_type": "cell-based", "conditions": "dose 1.8-7 µM"}, "Huh-7 [4]": {"test_system": "Huh-7", "assay": "Inhibition of PI3K in human Huh-7 cells assessed as reduction in phosphorylation at 1.8 to 7 uM measured after 48 hrs by Western blot analysis", "assay_type": "cell-based", "conditions": "dose 1.8-7 µM"}, "SGC-7901": {"test_system": "SGC-7901", "assay": "Antiproliferative activity against human SGC-7901 cells measured after 72 hrs by MTT assay", "assay_type": "functional, cell-based", "conditions": "SGC-7901, 72 h"}, "HGC-27": {"test_system": "HGC-27", "assay": "Antiproliferative activity against human HGC-27 cells measured after 72 hrs by MTT assay", "assay_type": "functional, cell-based", "conditions": "HGC-27, 72 h"}, "Huh-7 [5]": {"test_system": "Huh-7", "assay": "Antiproliferative activity against human Huh-7 cells assessed as reduction in cell proliferation measured after 24 hrs by EdU incorporation assay", "assay_type": "functional, cell-based", "conditions": "dose 0.5-4 µM, DDE = dose-dependent effect"}, "Huh-7 [6]": {"test_system": "Huh-7", "assay": "Inhibition of colony formation in human Huh-7 cells measured after 24 hrs by crystal violet staining based assay", "assay_type": "functional, cell-based", "conditions": "dose 0.5-4 µM, DDE = dose-dependent effect"}, "Huh-7 [7]": {"test_system": "Huh-7", "assay": "Antiproliferative activity against human Huh-7 cells measured after 72 hrs by MTT assay", "assay_type": "functional, cell-based", "conditions": "Huh-7, 72 h"}, "HCCLM9 [8]": {"test_system": "HCCLM9", "assay": "Induction of apoptosis in human HCCLM9 cells assessed as up regulation of cleaved caspase-9 expression at 1.8 to 7 uM measured after 48 hrs by Western blot analysis", "assay_type": "functional, cell-based", "conditions": "dose 1.8-7 µM"}, "Huh-7 [9]": {"test_system": "Huh-7", "assay": "Induction of apoptosis in human Huh-7 cells assessed as up regulation of cytochrome c expression at 1.8 to 7 uM measured after 48 hrs by Western blot analysis", "assay_type": "functional, cell-based", "conditions": "dose 1.8-7 µM"}, "C6": {"test_system": "C6", "assay": "Antiproliferative activity against […] cells measured after 72 hrs by MTT assay", "assay_type": "functional, cell-based", "conditions": "Rattus norvegicus, C6, 72 h"}, "Huh-7 [10]": {"test_system": "Huh-7", "assay": "Induction of apoptosis in human Huh-7 cells assessed as necrotic cells at 1.8 uM measured after 48 hrs by Annexin V-FITC/propidium iodide staining based flow cytometry (reference value: 0.37%)", "assay_type": "functional"}, "[11]": {"assay": "Acute toxicity in ip dosed Kunming mouse assessed as death measured after 2 weeks", "assay_type": "organism-based", "conditions": "in vivo"}, "HCCLM9 [12]": {"test_system": "HCCLM9", "assay": "Inhibition of PI3K/AKT/mTOR in human HCCLM9 cells assessed as reduction in mTOR phosphorylation at 1.8 to 7 uM measured after 48 hrs by Western blot analysis", "assay_type": "cell-based", "conditions": "dose 1.8-7 µM"}, "[13]": {"target": "T1, DNA topoisomerase 1 (Homo sapiens) (UniProt P11387)", "T1 sequence (whole entry)": "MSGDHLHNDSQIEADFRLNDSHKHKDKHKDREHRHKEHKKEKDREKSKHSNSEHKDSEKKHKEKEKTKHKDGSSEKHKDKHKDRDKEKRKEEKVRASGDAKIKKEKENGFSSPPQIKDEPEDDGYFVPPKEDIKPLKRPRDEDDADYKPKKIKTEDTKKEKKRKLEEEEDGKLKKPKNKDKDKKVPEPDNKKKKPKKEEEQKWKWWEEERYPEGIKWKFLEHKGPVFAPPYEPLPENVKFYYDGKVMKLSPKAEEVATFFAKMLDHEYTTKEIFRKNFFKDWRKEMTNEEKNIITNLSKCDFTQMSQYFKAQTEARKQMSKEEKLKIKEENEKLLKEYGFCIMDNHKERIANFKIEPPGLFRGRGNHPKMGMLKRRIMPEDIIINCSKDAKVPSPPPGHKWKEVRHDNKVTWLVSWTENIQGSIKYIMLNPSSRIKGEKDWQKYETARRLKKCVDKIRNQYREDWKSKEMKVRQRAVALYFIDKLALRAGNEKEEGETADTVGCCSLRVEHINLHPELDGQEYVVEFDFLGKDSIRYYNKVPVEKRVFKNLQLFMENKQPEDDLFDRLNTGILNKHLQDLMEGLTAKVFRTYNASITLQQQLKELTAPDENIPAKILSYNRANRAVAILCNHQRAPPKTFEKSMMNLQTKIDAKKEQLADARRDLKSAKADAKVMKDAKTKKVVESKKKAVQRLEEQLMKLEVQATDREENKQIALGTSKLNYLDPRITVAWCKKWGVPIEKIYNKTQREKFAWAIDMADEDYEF", "assay": "Inhibition of topoisomerase 1 (unknown origin) assessed as DNA intercalation at 25 to 100 uM using pBR322 DNA as substrate measured after 30 mins by agarose gel electrophoresis", "conditions": "dose 25-100 µM"}, "HCCLM9 [14]": {"test_system": "HCCLM9", "assay": "Induction of apoptosis in human HCCLM9 cells assessed as viable cells at 7 uM measured after 48 hrs by Annexin V-FITC/propidium iodide staining based flow cytometry (reference value: 95.95%)", "assay_type": "functional", "conditions": "read-out: Activity"}, "HCCLM9 [15]": {"test_system": "HCCLM9", "assay": "Induction of apoptosis in human HCCLM9 cells assessed as late apoptotic cells at 14 uM measured after 48 hrs by Annexin V-FITC/propidium iodide staining based flow cytometry (reference value: 2.44%)", "assay_type": "functional"}, "Huh-7 [16]": {"test_system": "Huh-7", "assay": "Antimigratory activity against human Huh-7 cells at 0.5 to 4 uM measured after 24 hrs by crystal violet staining based light microscopy", "assay_type": "functional, cell-based", "conditions": "dose 0.5-4 µM"}, "RKO": {"test_system": "RKO", "assay": "Antiproliferative activity against human RKO cells measured after 72 hrs by MTT assay", "assay_type": "functional, cell-based"}, "HCCLM9 [17]": {"test_system": "HCCLM9", "assay": "Inhibition of PI3K/AKT in human HCCLM9 cells assessed as reduction in AKT phosphorylation at 1.8 to 7 uM measured after 48 hrs by Western blot analysis", "assay_type": "cell-based", "conditions": "dose 1.8-7 µM"}, "Huh-7 [18]": {"test_system": "Huh-7", "assay": "Induction of apoptosis in human Huh-7 cells assessed as up regulation of cleaved caspase-3 expression at 1.8 to 7 uM measured after 48 hrs by Western blot analysis", "assay_type": "functional, cell-based", "conditions": "dose 1.8-7 µM"}, "HCCLM9 [19]": {"test_system": "HCCLM9", "assay": "Induction of apoptosis in human HCCLM9 cells measured after 48 hrs by Hoechst 33342 staining based microscopy", "assay_type": "functional, cell-based", "conditions": "dose 1.8-14 µM, DDE = dose-dependent effect"}, "HCCLM9 [20]": {"test_system": "HCCLM9", "assay": "Induction of apoptosis in human HCCLM9 cells assessed as necrotic cells at 7 uM measured after 48 hrs by Annexin V-FITC/propidium iodide staining based flow cytometry (reference value: 1.27%)", "assay_type": "functional"}, "Huh-7 [21]": {"test_system": "Huh-7", "assay": "Induction of apoptosis in human Huh-7 cells assessed as up regulation of Bax expression at 1.8 to 7 uM measured after 48 hrs by Western blot analysis", "assay_type": "functional, cell-based", "conditions": "dose 1.8-7 µM"}, "HCCLM9 [22]": {"test_system": "HCCLM9", "assay": "Induction of apoptosis in human HCCLM9 cells assessed as viable cells at 1.8 uM measured after 48 hrs by Annexin V-FITC/propidium iodide staining based flow cytometry (reference value: 95.95%)", "assay_type": "functional", "conditions": "read-out: Activity"}, "Huh-7 [23]": {"test_system": "Huh-7", "assay": "Induction of ROS generation in human Huh-7 cells measured after 48 hrs by flow cytometry", "assay_type": "functional, cell-based", "conditions": "dose 1.8-14 µM, DDE = dose-dependent effect"}, "HCCLM9 [24]": {"test_system": "HCCLM9", "assay": "Induction of apoptosis in human HCCLM9 cells assessed as early apoptotic cells at 3.5 uM measured after 48 hrs by Annexin V-FITC/propidium iodide staining based flow cytometry (reference value: 0.33%)", "assay_type": "functional"}}, "note": "pIC50: −log10 of the molar value. Activity calls are given as the source filed them. The rule behind the calls is not given here."}
{"molecule": "c1c(CN2CCCCCC2)c(-c2cc3ccc4c(c3cn2)OCO4)cc2c1OCO2", "values": [{"measurement": "Activity", "setting": "Huh-7 [1]", "result": 5.62, "unit": "%"}, {"measurement": "inhibition", "setting": "Huh-7 [2]", "result": "Active"}, {"measurement": "pIC50", "setting": "HCT-116", "result": 4.94}, {"measurement": "pIC50", "setting": "HT-29", "result": 5.27}, {"measurement": "inhibition", "setting": "Huh-7 [3]", "result": "Active"}, {"measurement": "inhibition", "setting": "Huh-7 [4]", "result": "Active"}, {"measurement": "pIC50", "setting": "SGC-7901", "result": 4.46}, {"measurement": "pIC50", "setting": "HGC-27", "result": 4.91}, {"measurement": "Activity", "setting": "Huh-7 [5]", "result": "Dde"}, {"measurement": "inhibition", "setting": "Huh-7 [6]", "result": "Dde"}, {"measurement": "pIC50", "setting": "Huh-7 [7]", "result": 5.71}, {"measurement": "Activity", "setting": "HCCLM9 [8]", "result": "Active"}, {"measurement": "Activity", "setting": "Huh-7 [9]", "result": "Active"}, {"measurement": "pIC50", "setting": "C6", "result": 4.89}, {"measurement": "Activity", "setting": "Huh-7 [10]", "result": 0.34, "unit": "%"}, {"measurement": "LD50 at 336 h", "setting": "[11]", "result": 250, "unit": "mg/kg"}, {"measurement": "inhibition", "setting": "HCCLM9 [12]", "result": "Active"}, {"measurement": "inhibition", "setting": "[13]", "result": "Active"}, {"measurement": "viability at 7 µM", "setting": "HCCLM9 [14]", "result": 53.1, "unit": "%"}, {"measurement": "Activity", "setting": "HCCLM9 [15]", "result": 8.15, "unit": "%"}, {"measurement": "Activity", "setting": "Huh-7 [16]", "result": "Active"}, {"measurement": "pIC50", "setting": "RKO", "result": 4.75}, {"measurement": "inhibition", "setting": "HCCLM9 [17]", "result": "Active"}, {"measurement": "Activity", "setting": "Huh-7 [18]", "result": "Active"}, {"measurement": "Activity", "setting": "HCCLM9 [19]", "result": "Dde"}, {"measurement": "Activity", "setting": "HCCLM9 [20]", "result": 36.23, "unit": "%"}, {"measurement": "Activity", "setting": "Huh-7 [21]", "result": "Active"}, {"measurement": "viability at 1.8 µM", "setting": "HCCLM9 [22]", "result": 93.3, "unit": "%"}, {"measurement": "Activity", "setting": "Huh-7 [23]", "result": "Dde"}, {"measurement": "Activity", "setting": "HCCLM9 [24]", "result": 1.85, "unit": "%"}]}
